# Test results published in patent US10221197B2, “Phosphatidylinositol 3-kinase inhibitors” (Gilead Sciences, Inc., priority 2014, dated 2019).
# Experiments:
# Type in all cases: biochemical
# PI3Kβ = PI3Kβ (Homo sapiens (Human), UniProt P42338); assay: TR-FRET enzymatic assay of PI3K isoforms (PI3Kβ); conditions: TR-FRET, 2×Km ATP, 2 μM PIP2, incubated for 30 minutes at 25° C.; read-out: β IC50
# Description: (§1) The compounds of formula (I) were characterized for their enzymatic activity against the PI3K isoforms. Certain compounds of the present application, including certain compounds of formula (II) and (III) were also characterized for their enzymatic activity against PI3K isoforms. The activities were measured using a time-resolved fluorescence resonance energy transfer (TR-FRET) assay.
# PI3Kδ = PI3Kδ (Homo sapiens (Human), UniProt O00329); assay: TR-FRET enzymatic assay of PI3K isoforms (PI3Kδ); conditions: 2×Km ATP, 2 μM PIP2, incubated for 30 minutes at 25° C., read-out: δ IC50
# Description: as §1
# PI3Kγ = PI3Kγ (Homo sapiens (Human), UniProt P48736); assay: TR-FRET enzymatic assay of PI3K isoforms (PI3Kγ); conditions: TR-FRET, 2×Km ATP, 2 μM PIP2, PI3Kγ at 2 nM, incubated for 30 minutes at 25° C.; read-out: γ IC50
# Description: as §1
# PI3Kδ, sequence (O00329 whole entry, canonical isoform): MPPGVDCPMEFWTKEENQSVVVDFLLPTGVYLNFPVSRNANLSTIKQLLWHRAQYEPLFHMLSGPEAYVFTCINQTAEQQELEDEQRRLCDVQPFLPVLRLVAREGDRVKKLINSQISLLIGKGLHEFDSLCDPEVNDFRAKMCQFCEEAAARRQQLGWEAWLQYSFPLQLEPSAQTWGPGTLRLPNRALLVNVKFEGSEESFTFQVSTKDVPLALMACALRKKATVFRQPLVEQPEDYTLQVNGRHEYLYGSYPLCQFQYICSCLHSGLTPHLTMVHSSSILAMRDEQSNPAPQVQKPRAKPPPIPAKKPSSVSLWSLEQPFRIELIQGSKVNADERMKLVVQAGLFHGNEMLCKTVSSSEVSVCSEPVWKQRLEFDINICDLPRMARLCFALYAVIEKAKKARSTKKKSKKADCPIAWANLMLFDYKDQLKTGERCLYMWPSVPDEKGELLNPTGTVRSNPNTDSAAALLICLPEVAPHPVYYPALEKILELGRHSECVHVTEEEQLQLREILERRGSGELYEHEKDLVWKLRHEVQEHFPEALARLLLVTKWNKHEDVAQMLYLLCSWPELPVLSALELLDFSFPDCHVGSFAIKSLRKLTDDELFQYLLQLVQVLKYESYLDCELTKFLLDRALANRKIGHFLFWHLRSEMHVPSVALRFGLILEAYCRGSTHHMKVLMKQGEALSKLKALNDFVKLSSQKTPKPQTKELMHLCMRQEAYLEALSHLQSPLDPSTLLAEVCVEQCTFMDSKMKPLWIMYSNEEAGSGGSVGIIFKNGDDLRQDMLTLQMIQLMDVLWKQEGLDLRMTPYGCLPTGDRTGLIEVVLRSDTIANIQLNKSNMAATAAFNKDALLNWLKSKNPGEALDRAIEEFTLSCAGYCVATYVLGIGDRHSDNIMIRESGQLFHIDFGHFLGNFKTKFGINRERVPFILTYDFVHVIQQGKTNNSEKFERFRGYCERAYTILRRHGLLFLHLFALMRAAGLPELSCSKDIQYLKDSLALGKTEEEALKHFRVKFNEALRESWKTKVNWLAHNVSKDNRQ
# PI3Kδ, sequence (P27986 whole entry partner, canonical isoform): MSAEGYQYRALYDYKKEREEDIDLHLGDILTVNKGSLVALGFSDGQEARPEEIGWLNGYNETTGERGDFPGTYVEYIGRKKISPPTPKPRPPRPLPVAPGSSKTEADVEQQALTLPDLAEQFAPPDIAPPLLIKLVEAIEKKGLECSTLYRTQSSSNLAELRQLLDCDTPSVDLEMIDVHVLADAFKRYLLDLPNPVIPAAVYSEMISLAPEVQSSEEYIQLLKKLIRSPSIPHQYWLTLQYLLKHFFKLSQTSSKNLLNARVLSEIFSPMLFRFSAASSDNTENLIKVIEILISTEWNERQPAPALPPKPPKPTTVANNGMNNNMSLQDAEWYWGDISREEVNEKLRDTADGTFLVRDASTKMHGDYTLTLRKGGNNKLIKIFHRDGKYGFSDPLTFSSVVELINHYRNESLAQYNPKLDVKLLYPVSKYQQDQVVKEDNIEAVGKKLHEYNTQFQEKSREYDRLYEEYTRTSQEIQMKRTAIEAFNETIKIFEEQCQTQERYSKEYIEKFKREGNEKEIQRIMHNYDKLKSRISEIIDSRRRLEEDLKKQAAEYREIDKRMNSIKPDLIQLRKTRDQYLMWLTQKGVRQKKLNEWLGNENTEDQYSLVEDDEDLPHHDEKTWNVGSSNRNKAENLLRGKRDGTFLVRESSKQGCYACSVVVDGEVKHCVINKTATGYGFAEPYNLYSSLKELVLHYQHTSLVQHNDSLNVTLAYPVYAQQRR
# PI3Kβ, sequence (P42338 whole entry, canonical isoform): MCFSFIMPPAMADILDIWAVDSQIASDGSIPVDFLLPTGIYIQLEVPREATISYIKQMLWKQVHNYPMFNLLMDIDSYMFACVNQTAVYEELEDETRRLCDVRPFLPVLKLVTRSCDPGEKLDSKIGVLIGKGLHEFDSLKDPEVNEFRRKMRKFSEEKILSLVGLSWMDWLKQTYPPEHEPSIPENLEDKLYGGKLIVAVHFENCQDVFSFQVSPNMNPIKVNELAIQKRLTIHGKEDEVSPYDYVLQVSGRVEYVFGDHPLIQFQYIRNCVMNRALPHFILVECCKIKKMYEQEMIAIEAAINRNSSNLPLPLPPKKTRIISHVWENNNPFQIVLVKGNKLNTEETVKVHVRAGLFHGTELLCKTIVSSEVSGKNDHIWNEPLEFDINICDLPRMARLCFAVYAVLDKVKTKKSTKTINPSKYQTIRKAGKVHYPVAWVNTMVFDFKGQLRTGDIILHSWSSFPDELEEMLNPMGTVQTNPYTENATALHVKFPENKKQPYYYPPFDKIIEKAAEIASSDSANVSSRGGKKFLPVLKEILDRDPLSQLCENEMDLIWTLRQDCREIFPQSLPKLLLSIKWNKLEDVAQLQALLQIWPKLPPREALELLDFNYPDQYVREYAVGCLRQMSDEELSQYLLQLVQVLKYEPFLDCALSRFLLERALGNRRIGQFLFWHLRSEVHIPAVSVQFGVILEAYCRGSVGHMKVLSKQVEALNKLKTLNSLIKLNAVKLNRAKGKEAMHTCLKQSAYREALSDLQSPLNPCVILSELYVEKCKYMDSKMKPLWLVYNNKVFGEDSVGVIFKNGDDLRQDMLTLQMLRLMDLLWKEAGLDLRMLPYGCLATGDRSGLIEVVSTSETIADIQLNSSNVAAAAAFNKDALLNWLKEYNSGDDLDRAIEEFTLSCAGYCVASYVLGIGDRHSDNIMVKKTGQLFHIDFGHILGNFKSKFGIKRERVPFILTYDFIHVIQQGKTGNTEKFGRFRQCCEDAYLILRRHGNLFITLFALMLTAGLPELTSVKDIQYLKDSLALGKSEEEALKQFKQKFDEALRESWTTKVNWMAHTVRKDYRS
# PI3Kβ, sequence (P27986 whole entry partner, canonical isoform): as the sequence (P27986 whole entry partner, canonical isoform) above
# PI3Kγ, sequence (P48736 whole entry, canonical isoform): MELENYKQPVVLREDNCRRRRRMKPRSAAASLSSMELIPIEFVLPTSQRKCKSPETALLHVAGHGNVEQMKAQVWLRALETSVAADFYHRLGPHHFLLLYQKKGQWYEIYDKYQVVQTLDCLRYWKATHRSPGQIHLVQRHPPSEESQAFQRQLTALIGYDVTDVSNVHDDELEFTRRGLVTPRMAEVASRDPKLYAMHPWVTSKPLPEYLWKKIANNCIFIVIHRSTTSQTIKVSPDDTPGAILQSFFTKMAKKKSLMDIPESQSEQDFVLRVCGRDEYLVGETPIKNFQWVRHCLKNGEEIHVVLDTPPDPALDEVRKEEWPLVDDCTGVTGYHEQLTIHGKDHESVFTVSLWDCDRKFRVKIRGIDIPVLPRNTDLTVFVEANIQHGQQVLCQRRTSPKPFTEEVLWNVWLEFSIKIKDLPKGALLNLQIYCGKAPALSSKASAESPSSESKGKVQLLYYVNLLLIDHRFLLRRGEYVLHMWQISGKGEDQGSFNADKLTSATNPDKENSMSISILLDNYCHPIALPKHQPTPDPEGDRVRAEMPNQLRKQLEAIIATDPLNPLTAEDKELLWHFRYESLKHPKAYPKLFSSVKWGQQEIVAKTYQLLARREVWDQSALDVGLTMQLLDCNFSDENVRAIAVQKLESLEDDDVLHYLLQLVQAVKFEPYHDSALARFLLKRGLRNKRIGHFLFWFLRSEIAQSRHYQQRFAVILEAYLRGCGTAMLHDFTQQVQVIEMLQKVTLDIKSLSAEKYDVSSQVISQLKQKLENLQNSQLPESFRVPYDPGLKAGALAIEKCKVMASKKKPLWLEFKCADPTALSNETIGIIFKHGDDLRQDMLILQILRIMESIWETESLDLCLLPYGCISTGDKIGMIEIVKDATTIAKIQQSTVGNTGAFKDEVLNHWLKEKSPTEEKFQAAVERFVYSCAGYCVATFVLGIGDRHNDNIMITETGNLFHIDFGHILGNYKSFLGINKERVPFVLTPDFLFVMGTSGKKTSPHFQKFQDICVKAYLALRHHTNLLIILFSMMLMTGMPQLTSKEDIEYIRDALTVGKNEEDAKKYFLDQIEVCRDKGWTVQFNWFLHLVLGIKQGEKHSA
# PI3Kγ, sequence (Q8WYR1 whole entry partner, canonical isoform): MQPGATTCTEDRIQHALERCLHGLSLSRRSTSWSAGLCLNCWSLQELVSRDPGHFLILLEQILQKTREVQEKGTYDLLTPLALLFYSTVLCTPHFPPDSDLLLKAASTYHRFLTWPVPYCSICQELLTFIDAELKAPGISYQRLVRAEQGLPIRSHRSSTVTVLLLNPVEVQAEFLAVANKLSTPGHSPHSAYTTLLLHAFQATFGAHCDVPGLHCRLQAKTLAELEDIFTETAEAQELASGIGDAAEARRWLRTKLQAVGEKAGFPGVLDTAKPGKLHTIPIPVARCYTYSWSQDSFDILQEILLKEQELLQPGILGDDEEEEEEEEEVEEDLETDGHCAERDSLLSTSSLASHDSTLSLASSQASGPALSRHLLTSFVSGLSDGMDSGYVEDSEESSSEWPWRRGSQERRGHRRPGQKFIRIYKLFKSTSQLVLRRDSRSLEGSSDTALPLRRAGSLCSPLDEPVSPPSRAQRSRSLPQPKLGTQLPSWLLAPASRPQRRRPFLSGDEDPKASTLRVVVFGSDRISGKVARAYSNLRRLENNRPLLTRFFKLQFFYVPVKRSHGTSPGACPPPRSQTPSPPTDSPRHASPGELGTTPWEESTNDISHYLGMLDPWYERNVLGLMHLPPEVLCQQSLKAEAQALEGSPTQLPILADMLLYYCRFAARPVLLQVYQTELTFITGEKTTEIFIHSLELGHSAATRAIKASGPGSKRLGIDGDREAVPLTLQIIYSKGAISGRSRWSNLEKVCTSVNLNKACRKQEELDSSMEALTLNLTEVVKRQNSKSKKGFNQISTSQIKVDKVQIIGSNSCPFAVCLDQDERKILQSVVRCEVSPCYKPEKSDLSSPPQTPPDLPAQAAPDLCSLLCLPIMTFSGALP
IC50 (PI3Kβ) [nM],IC50 (PI3Kδ) [nM],IC50 (PI3Kγ) [nM],Compound
1300,24,–,"CCNC(=O)Nc1ccc(Cl)c(-n2c([C@H](C)Nc3ncnc(N)c3C#N)nc3cccc(Cl)c3c2=O)c1 (atropisomer, axis not shown) [Compound 58, (S)-1-(3-(2-(1-((6-amino-5-cyanopyrimidin-4-yl)amino)ethyl)-5-chloro-4-oxoquinazolin-3(4H)-yl)-4-chlorophenyl)-3-ethylurea]"
610,56,2300,"CCNC(=O)Nc1ccc(Cl)c(-n2c([C@H](C)Nc3ncnc(N)c3C#N)nc3cccc(Cl)c3c2=O)c1 (atropisomer, axis not shown) [Compound 59, (S)-1-(3-(2-(1-((6-amino-5-cyanopyrimidin-4-yl)amino)ethyl)-5-chloro-4-oxoquinazolin-3(4H)-yl)-4-chlorophenyl)-3-ethylurea]"
210,4,210,"CCNC(=O)Nc1ccc(C)c(-n2c([C@H](C)Nc3ncnc(N)c3C#N)nc3cccc(Cl)c3c2=O)c1 (atropisomer, axis not shown) [Compound 60, (S)-1-(3-(2-(1-((6-amino-5-cyanopyrimidin-4-yl)amino)ethyl)-5-chloro-4-oxoquinazolin-3(4H)-yl)-4-methylphenyl)-3-ethylurea]"
1130,8,2500,"CCNC(=O)Nc1ccc(C)c(-n2c([C@H](C)Nc3ncnc(N)c3C#N)nc3cccc(Cl)c3c2=O)c1 (atropisomer, axis not shown) [Compound 61, (S)-1-(3-(2-(1-((6-amino-5-cyanopyrimidin-4-yl)amino)ethyl)-5-chloro-4-oxoquinazolin-3(4H)-yl)-4-methylphenyl)-3-ethylurea]"
526,2,81,"Cc1c(C(N)=O)cccc1-n1c([C@H](C)Nc2nc(N)nc(N)c2C#N)nc2cccc(Cl)c2c1=O (single isomer, unassigned) [Compound 5]"
32,4,620,"Cc1c(C(N)=O)cccc1-n1c([C@H](C)Nc2nc(N)nc(N)c2C#N)nc2cccc(Cl)c2c1=O (single isomer, unassigned) [Compound 6]"
5500,78,> 10000,"CCNC(=O)Nc1cccc(-n2c([C@H](C)Nc3ncnc(N)c3C#N)nc3cccc(Cl)c3c2=O)c1Cl (single isomer, unassigned) [Compound 94]"
59,5,1000,"CCNC(=O)Nc1cccc(-n2c([C@H](C)Nc3ncnc(N)c3C#N)nc3cccc(Cl)c3c2=O)c1Cl (single isomer, unassigned) [Compound 95]"
14,0.7,1300,"C[C@H](Nc1nc(N)nc(N)c1Cl)c1nc2cccc(Cl)c2c(=O)n1-c1cccc(C(N)=O)c1 [Compound 1, (S)-3-(5-chloro-2-(1-((2,6-diamino-5-chloropyrimidin-4-yl)amino)ethyl)-4-oxoquinazolin-3(4H)-yl)benzamide]"
6,0.5,60,"C[C@H](Nc1nc(N)nc(N)c1C#N)c1nc2cccc(Cl)c2c(=O)n1-c1cccc(C(N)=O)c1 [Compound 2, (S)-3-(5-chloro-2-(1-((2,6-diamino-5-cyanopyrimidin-4-yl)amino)ethyl)-4-oxoquinazolin-3(4H)-yl)benzamide]"
12,0.8,460,"C[C@H](Nc1nc(N)nc(N)c1C#N)c1nc2c(Cl)ccc(Cl)c2c(=O)n1-c1cccc(C(N)=O)c1 [Compound 3, (S)-3-(5,8-dichloro-2-(1-((2,6-diamino-5-cyanopyrimidin-4-yl)amino)ethyl)-4-oxoquinazolin-3(4H)-yl)benzamide]"
29,1,4400,"C[C@H](Nc1nc(N)nc(N)c1Cl)c1nc2c(Cl)ccc(Cl)c2c(=O)n1-c1cccc(C(N)=O)c1 [Compound 4, (S)-3-(5,8-dichloro-2-(1-((2,6-diamino-5-chloropyrimidin-4-yl)amino)ethyl)-4-oxoquinazolin-3(4H)-yl)benzamide]"
7,1,2700,"CC[C@H](Nc1nc(N)nc(N)c1Cl)c1nc2cccc(Cl)c2c(=O)n1-c1cccc(C(N)=O)c1 [Compound 7, (S)-3-(5-chloro-2-(1-((2,6-diamino-5-chloropyrimidin-4-yl)amino)propyl)-4-oxoquinazolin-3(4H)-yl)benzamide]"
2,0.4,200,"CC[C@H](Nc1nc(N)nc(N)c1C#N)c1nc2cccc(Cl)c2c(=O)n1-c1cccc(C(N)=O)c1 [Compound 8, (S)-3-(5-chloro-2-(1-((2,6-diamino-5-cyanopyrimidin-4-yl)amino)propyl)-4-oxoquinazolin-3(4H)-yl)benzamide]"
2,0.6,220,"N#Cc1c(N)nc(N)nc1N[C@H](c1nc2cccc(Cl)c2c(=O)n1-c1cccc(C(N)=O)c1)C1CC1 [Compound 9, (S)-3-(5-chloro-2-(cyclopropyl((2,6-diamino-5-cyanopyrimidin-4-yl)amino)methyl)-4-oxoquinazolin-3(4H)-yl)benzamide]"
7,1,2700,"NC(=O)c1cccc(-n2c([C@@H](Nc3nc(N)nc(N)c3Cl)C3CC3)nc3cccc(Cl)c3c2=O)c1 [Compound 10, (S)-3-(5-chloro-2-(cyclopropyl((2,6-diamino-5-chloropyrimidin-4-yl)amino)methyl)-4-oxoquinazolin-3(4H)-yl)benzamide]"
37,3,8500,"NC(=O)c1cccc(-n2c([C@@H](Nc3nc(N)nc(N)c3Cl)C3CC3)nc3c(Cl)ccc(Cl)c3c2=O)c1 [Compound 11, (S)-3-(5,8-dichloro-2-(cyclopropyl((2,6-diamino-5-chloropyrimidin-4-yl)amino)methyl)-4-oxoquinazolin-3(4H)-yl)benzamide]"
6,0.3,230,"N#Cc1c(N)nc(N)nc1N[C@H](c1nc2c(Cl)ccc(Cl)c2c(=O)n1-c1cccc(C(N)=O)c1)C1CC1 [Compound 12, (S)-3-(5,8-dichloro-2-(cyclopropyl((2,6-diamnino-5-cyanopyrimidin-4-yl)amino)methyl)-4-oxoquinazolin-3(4H)-yl)benzamide]"
10,1,360,"Cc1nc(N)nc(N[C@H](c2nc3c(F)ccc(Cl)c3c(=O)n2-c2cccc(C(N)=O)c2)C2CC2)c1C#N [Compound 14, (S)-3-(2-(((2-amino-5-cyano-6-methylpyrimidin-4-yl)amino)(cyclopropyl)methyl)-5-chloro-8-fluoro-4-oxoquinazolin-3(4H)-yl)benzamide]"
5,2,–,"N#Cc1c(N)nc(N)nc1N[C@H](c1nc2c(Cl)cc(F)cc2c(=O)n1-c1cccc(C(N)=O)c1)C1CC1 [Compound 27, (S)-3-(8-chloro-2-(cyclopropyl((2,6-diamino-5-cyanopyrimidin-4-yl)amino)methyl)-6-fluoro-4-oxoquinazolin-3(4H)-yl)benzamide]"
29,29,–,"CCNC(=O)Nc1cccc(-n2c([C@H](C)Nc3ncnc4[nH]cnc34)nc3c(F)ccc(Cl)c3c2=O)c1 [Compound 63, (S)-1-(3-(2-(1-((9H-purin-6-yl)amino)ethyl)-5-chloro-8-fluoro-4-oxoquinazolin-3(4H)-yl)phenyl)-3-ethylurea]"
11,3,–,"C[C@H](Nc1ncnc(N)c1C#N)c1nc2cccc(Cl)c2c(=O)n1-c1cccc(NC(=O)Nc2cc(C(C)(C)C)on2)c1 [Compound 74, (S)-1-(3-(2-(1-((6-amino-5-cyanopyrimidin-4-yl)amino)ethyl)-5 chloro-4-oxoquinazolin-3(4H)-yl)phenyl)-3-(5-(tert-butyl)isoxazol-3-yl)urea]"
2,7,–,"C[C@H](Nc1ncnc(N)c1C#N)c1nc2cccc(Cl)c2c(=O)n1-c1cccc(NC(=O)Nc2c(Cl)cccc2Cl)c1 [Compound 103, (S)-1-(3-(2-(1-((6-amino-5-cyanopyrimidin-4-yl)amino)ethyl)-5-chloro-4-oxoquinazolin-3(4H)-yl)phenyl)-3-(2,6-dichlorophenyl)urea]"
50,–,10000,"CCNC(=O)Nc1cccc(-n2c([C@H](COCc3ccccc3)Nc3ncnc4[nH]cnc34)nc3cccc(Cl)c3c2=O)c1 [Compound 133, (R)-1-(3-(2-(1-((9H-purin-6-yl)amino)-2-(benzyloxy)ethyl)-5-chloro-4-oxoquinazolin-3(4H)-yl)phenyl)-3-ethylurea]"
30,8,–,"C[C@H](Nc1ncnc2[nH]cnc12)c1nc2cccc(Cl)c2c(=O)n1-c1cccc(NC(=O)Nc2ccccc2S(C)(=O)=O)c1 [Compound 145, (S)-1-(3-(2-(1-((9H-purin-6-yl)amino)ethyl)-5-chloro-4-oxoquinazolin-3(4H)-yl)phenyl)-3-(2-(methylsulfonyl)phenyl)urea]"
60,–,3500,"COCCNC(=O)Nc1cccc(-n2c(C(C)Oc3ncnc4scnc34)nc3cccc(Cl)c3c2=O)c1 (stereo not shown) [Compound 149, 1-(3-(5-chloro-4-oxo-2-(1-(thiazolo[5,4-d]pyrimidin-7-yloxy)ethyl)quinazolin-3(4H)-yl)phenyl)-3-(2-methoxyethyl)urea]"
